For the test, the target named is DNA-dependent protein kinase catalytic subunit (Homo sapiens, UniProt P78527). In words: Inhibition against DNA-dependent protein kinase receptor at 0.5uM.
DNA-dependent protein kinase catalytic subunit, sequence (P78527 whole entry): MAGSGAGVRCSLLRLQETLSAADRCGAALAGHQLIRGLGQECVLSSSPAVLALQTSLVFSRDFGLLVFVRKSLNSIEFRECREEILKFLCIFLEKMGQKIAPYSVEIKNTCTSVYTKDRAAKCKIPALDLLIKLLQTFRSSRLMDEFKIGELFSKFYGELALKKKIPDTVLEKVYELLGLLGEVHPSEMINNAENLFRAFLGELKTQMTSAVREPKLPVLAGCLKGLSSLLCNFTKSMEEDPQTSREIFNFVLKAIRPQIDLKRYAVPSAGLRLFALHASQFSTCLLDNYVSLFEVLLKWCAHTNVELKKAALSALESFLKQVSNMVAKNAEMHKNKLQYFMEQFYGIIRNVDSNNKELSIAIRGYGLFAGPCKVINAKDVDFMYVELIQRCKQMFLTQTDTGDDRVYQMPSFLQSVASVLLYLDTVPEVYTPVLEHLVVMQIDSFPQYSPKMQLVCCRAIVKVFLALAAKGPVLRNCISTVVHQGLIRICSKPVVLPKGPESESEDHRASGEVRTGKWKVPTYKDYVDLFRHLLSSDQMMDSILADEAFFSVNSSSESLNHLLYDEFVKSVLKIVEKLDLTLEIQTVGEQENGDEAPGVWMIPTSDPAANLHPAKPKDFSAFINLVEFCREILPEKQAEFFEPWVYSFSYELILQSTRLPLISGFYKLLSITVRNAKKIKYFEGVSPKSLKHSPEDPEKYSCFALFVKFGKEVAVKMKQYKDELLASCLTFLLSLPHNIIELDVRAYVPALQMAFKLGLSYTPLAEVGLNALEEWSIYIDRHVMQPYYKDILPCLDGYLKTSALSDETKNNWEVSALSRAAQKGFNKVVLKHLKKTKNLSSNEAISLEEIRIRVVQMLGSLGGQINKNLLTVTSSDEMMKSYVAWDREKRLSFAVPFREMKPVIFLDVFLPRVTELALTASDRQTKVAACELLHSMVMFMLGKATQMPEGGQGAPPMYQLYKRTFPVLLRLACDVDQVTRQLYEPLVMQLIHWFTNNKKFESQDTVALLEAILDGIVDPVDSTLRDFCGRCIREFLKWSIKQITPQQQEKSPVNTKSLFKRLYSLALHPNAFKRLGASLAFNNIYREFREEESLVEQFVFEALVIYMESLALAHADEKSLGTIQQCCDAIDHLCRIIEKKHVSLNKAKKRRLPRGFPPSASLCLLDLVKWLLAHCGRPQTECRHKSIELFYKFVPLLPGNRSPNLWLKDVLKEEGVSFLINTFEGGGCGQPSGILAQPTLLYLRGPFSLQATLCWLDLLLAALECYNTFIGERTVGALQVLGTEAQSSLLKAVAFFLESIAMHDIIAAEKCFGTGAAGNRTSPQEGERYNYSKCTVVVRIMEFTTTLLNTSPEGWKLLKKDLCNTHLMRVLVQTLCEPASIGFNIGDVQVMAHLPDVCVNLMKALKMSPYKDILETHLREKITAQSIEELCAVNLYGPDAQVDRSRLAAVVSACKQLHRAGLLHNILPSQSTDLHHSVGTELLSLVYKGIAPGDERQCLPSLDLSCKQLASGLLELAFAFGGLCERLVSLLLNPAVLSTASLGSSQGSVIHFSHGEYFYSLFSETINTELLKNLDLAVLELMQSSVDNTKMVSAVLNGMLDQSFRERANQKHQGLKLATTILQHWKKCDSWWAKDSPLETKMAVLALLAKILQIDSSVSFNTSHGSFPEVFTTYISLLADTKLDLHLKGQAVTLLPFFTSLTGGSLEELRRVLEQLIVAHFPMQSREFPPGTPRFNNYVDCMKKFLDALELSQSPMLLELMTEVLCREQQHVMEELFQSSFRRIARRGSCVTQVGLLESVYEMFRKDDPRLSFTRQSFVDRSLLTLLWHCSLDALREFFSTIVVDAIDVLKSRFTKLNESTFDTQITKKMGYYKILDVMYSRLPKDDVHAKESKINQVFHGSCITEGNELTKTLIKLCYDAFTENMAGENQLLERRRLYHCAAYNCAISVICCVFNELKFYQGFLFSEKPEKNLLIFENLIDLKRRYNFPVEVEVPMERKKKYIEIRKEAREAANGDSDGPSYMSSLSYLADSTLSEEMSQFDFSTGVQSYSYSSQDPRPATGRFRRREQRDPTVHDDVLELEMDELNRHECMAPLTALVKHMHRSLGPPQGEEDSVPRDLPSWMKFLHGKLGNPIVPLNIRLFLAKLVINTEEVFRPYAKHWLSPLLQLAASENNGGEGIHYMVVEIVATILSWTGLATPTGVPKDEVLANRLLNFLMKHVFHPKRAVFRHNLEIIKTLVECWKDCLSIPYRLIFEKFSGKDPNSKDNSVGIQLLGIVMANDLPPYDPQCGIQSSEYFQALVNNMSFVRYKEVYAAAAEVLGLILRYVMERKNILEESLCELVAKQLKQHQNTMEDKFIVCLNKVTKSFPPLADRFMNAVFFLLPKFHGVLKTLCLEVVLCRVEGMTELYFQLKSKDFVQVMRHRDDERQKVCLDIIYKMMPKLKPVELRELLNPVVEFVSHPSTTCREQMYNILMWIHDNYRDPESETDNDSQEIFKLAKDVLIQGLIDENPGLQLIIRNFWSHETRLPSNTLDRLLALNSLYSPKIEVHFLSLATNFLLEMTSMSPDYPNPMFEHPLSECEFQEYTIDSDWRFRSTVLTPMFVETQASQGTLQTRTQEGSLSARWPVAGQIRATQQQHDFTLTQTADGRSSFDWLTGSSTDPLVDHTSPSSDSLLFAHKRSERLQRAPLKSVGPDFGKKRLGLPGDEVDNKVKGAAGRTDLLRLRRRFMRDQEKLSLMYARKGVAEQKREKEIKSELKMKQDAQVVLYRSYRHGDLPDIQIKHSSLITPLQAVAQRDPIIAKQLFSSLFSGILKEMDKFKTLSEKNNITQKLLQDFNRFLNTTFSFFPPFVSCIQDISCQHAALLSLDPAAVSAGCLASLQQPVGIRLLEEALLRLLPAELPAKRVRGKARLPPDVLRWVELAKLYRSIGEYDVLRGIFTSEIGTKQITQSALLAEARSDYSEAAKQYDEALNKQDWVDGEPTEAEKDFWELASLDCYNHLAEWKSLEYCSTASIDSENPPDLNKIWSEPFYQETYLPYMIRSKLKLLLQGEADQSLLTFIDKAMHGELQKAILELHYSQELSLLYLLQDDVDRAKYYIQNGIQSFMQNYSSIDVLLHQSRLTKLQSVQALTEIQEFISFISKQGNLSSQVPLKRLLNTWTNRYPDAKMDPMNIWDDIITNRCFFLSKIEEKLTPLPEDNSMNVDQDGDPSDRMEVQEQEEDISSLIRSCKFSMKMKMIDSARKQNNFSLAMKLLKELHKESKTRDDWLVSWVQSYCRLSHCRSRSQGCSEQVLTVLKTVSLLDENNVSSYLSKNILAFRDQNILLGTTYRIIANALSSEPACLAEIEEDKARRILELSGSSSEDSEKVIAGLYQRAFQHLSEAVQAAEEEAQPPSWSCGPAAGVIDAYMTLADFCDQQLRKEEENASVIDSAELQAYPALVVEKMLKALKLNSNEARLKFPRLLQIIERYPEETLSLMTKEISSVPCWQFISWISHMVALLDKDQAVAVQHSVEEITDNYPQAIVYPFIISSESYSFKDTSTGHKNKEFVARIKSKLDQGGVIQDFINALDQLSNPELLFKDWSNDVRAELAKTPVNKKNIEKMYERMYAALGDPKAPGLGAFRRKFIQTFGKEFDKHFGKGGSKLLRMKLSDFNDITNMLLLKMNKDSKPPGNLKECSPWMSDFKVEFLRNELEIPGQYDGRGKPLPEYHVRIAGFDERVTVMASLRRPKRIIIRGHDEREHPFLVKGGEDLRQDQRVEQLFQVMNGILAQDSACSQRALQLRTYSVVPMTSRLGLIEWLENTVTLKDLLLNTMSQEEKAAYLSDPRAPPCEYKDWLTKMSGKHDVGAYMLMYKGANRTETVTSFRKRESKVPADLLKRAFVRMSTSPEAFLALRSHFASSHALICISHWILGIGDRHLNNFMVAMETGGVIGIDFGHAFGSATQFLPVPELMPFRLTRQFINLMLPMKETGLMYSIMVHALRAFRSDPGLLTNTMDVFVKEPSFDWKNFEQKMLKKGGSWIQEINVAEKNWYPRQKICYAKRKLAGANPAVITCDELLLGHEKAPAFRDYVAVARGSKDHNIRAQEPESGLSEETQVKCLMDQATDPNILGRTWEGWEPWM
`COC(=O)c1ccccc1-c1ccc2oc(N3CCOCC3)cc(=O)c2c1`: the inhibition was found to be 30%. In the case of `COC(=O)/C=C\c1ccccc1-c1ccc2oc(N3CCOCC3)cc(=O)c2c1`, the inhibition was 63%.

`O=c1cc(N2CCOCC2)oc2ccc(/C=C/c3ccc(F)cc3)cc12` gave an inhibition of 57%. In turn, `O=c1cc(N2CCOCC2)oc2ccc(-c3cccc(OCc4ccccc4)c3)cc12` had an inhibition of 35%.

`O=c1cc(N2CCOCC2)oc2ccc(-c3ccc4ncccc4c3)cc12` gave an inhibition of 13%. Under `O=c1cc(N2CCOCC2)oc2ccc(-c3csc4ccccc34)cc12` stands 50%; under `CC(=O)Nc1ccccc1-c1ccc2oc(N3CCOCC3)cc(=O)c2c1`, 60%. To `O=c1cc(N2CCOCC2)oc2cc(-c3ccc(O)cc3)ccc12` belongs 22%; to `CC(=O)c1cccc(-c2ccc3oc(N4CCOCC4)cc(=O)c3c2)c1`, 46%. Under `O=c1cc(N2CCOCC2)oc2ccc(-c3ccc(O)cc3)cc12` stands 57%; under `COC(=O)c1ccc(-c2ccc3oc(N4CCOCC4)cc(=O)c3c2)cc1`, 16%; under `O=c1cc(N2CCOCC2)oc2ccc(-c3cccc(O)c3)cc12`, 56%.

Compound `CC(=O)c1ccccc1-c1ccc2c(=O)cc(N3CCOCC3)oc2c1` displayed an inhibition of 26%. Under `O=c1cc(N2CCOCC2)oc2ccc(-c3ccccc3C(F)(F)F)cc12` stands 7%; under `N#Cc1ccc(-c2ccc3c(=O)cc(N4CCOCC4)oc3c2)cc1`, 29%. Under `O=c1cc(N2CCOCC2)oc2ccc(-c3ccccc3OCc3ccccc3)cc12` stands 40%. Compound `O=c1cc(N2CCOCC2)oc2ccc(-c3ccsc3)cc12` gave an inhibition of 42%. Under `O=c1cc(N2CCOCC2)oc2cc(-c3ccc(Cl)cc3)ccc12` stands 4%.

The compound `CC(=O)c1ccccc1-c1ccc2oc(N3CCOCC3)cc(=O)c2c1` yielded an inhibition of 61%.

`O=c1cc(N2CCOCC2)oc2ccc(-c3ccc(CO)cc3)cc12`: the inhibition came out at 58%.

Compound `CCOC(=O)c1cccc(-c2ccc3oc(N4CCOCC4)cc(=O)c3c2)c1` came in with an inhibition of 13%. `O=c1cc(N2CCOCC2)oc2ccc(-c3cccc4c3sc3ccccc34)cc12` yielded an inhibition of 14%. Under `O=c1cc(N2CCOCC2)oc2cc(-c3ccccc3OCc3ccccc3)ccc12` stands 30%; under `CC(=O)Nc1ccccc1-c1ccc2c(=O)cc(N3CCOCC3)oc2c1`, 21%.

Consider `CCOC(=O)c1cccc(-c2ccc3c(=O)cc(N4CCOCC4)oc3c2)c1`, for which the inhibition worked out at 26%. To `O=C(OCc1ccccc1)c1ccc(-c2ccc3c(=O)cc(N4CCOCC4)oc3c2)cc1` belongs 24%; to `O=C(OCc1ccccc1)c1ccc(-c2ccc3oc(N4CCOCC4)cc(=O)c3c2)cc1`, 31%; to `O=c1cc(N2CCOCC2)oc2ccc(-c3ccc(OC(F)(F)F)cc3)cc12`, 19%. To `COc1ccc(-c2ccc3c(=O)cc(N4CCOCC4)oc3c2)cc1` belongs 22%; to `O=c1cc(N2CCOCC2)oc2ccc(-c3cccs3)cc12`, 43%; to `CC(=O)Nc1cccc(-c2ccc3oc(N4CCOCC4)cc(=O)c3c2)c1`, 37%.

The compound `CC(=O)Nc1cccc(-c2ccc3c(=O)cc(N4CCOCC4)oc3c2)c1` yielded an inhibition of 28%. `O=c1cc(N2CCOCC2)oc2cc(-c3ccc(CO)cc3)ccc12`: the inhibition worked out at 35%. To `O=c1cc(N2CCOCC2)oc2cc(-c3cccc(O)c3)ccc12` belongs 33%; to `Nc1ccc(-c2ccc3c(=O)cc(N4CCOCC4)oc3c2)cc1`, 31%; to `O=c1cc(N2CCOCC2)oc2cc(-c3cccc(OCc4ccccc4)c3)ccc12`, 29%. Turning to `O=c1cc(N2CCOCC2)oc2ccc(-c3ccco3)cc12`, the inhibition was 14%. Under `O=c1cc(N2CCOCC2)oc2cc(-c3ccccc3CO)ccc12` stands 15%; under `O=c1cc(N2CCOCC2)oc2cc(-c3cccc(OC(F)(F)F)c3)ccc12`, 20%.

Turning to `O=c1cc(N2CCOCC2)oc2ccc(-c3ccc4ccccc4c3)cc12`, the inhibition was found to be 4%. To `N#Cc1ccc(-c2ccc3oc(N4CCOCC4)cc(=O)c3c2)cc1` belongs 37%. To `O=c1cc(N2CCOCC2)oc2ccc(-c3cc(C(F)(F)F)cc(C(F)(F)F)c3)cc12` belongs 13%; to `O=c1cc(N2CCOCC2)oc2ccc(-c3cccc(CO)c3)cc12`, 51%; to `O=C1c2ccccc2C(=O)N1Cc1ccc(-c2ccc3oc(N4CCOCC4)cc(=O)c3c2)cc1`, 49%. For `O=c1cc(N2CCOCC2)oc2ccc(-c3cccc(OC(F)(F)F)c3)cc12`, the inhibition turned out to be 47%. To `O=c1cc(N2CCOCC2)oc2ccc(-c3ccccc3-c3ccccc3)cc12` belongs 56%; to `O=c1cc(N2CCOCC2)oc2ccc(-c3ccc(Cl)cc3)cc12`, 6%.

In turn, `O=c1cc(N2CCOCC2)oc2ccc(-c3cccc4c3oc3ccccc34)cc12` displayed an inhibition of 37%. To `O=c1cc(N2CCOCC2)oc2ccc(-c3cccc4c3Sc3ccccc3S4)cc12` belongs 55%; to `COC(=O)/C=C/c1cccc(-c2ccc3c(=O)cc(N4CCOCC4)oc3c2)c1`, 34%. `CC(=O)c1cccc(-c2ccc3c(=O)cc(N4CCOCC4)oc3c2)c1` gave an inhibition of 6%.

In turn, `NC(=O)c1ccccc1-c1ccc2oc(N3CCOCC3)cc(=O)c2c1` registered an inhibition of 43%. In turn, `COc1ccc(-c2ccc3oc(N4CCOCC4)cc(=O)c3c2)cc1` displayed an inhibition of 57%. To `O=c1cc(N2CCOCC2)oc2cc(-c3ccc(OC(F)(F)F)cc3)ccc12` belongs 39%; to `O=c1cc(N2CCOCC2)oc2ccc(-c3ccccc3CO)cc12`, 48%; to `Cc1ccc(-c2ccc3oc(N4CCOCC4)cc(=O)c3c2)c2ccccc12`, 25%. In turn, `COC(=O)c1ccccc1-c1ccc2c(=O)cc(N3CCOCC3)oc2c1` had an inhibition of 30%. Under `O=c1cc(N2CCOCC2)oc2ccc(/C=C/c3ccccc3)cc12` stands 6%.

For `COC(=O)/C=C/c1cccc(-c2ccc3oc(N4CCOCC4)cc(=O)c3c2)c1`, the inhibition worked out at 76%. Under `COC(=O)/C=C/c1ccc(-c2ccc3c(=O)cc(N4CCOCC4)oc3c2)cc1` stands 14%; under `O=c1cc(N2CCOCC2)oc2ccc(-c3cccc4ccccc34)cc12`, 52%; under `O=c1cc(N2CCOCC2)oc2cc(-c3ccccc3-c3ccccc3)ccc12`, 25%. Under `O=c1cc(N2CCOCC2)oc2cc(-c3ccc(-c4ccccc4)cc3)ccc12` stands 35%.

Compound `CC(=O)Nc1ccc(-c2ccc3c(=O)cc(N4CCOCC4)oc3c2)cc1` yielded an inhibition of 20%. Under `O=c1cc(N2CCOCC2)oc2cc(-c3cccc(CO)c3)ccc12` stands 16%.

The record behind these values is ChEMBL document CHEMBL1141870, “Discovery of potent chromen-4-one inhibitors of the DNA-dependent protein kinase (DNA-PK) using a small-molecule library approach” (J Med Chem, 2005).
